In PubChem BioAssay (NCI):
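Results reflect a 48-hour exposure of cells in 96-well plates to compound at five concentrations. TGI: total growth inhibition.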

Assays:
Experiment in all cases: DTP human tumour cell line panel, 48 h
786-0 renal = system: 786-0 renal
ACHN renal = system: ACHN renal
BT-549 breast = system: BT-549 breast
CAKI-1 renal = system: CAKI-1 renal
HCC-2998 colon = system: HCC-2998 colon
K-562 leukemia = system: K-562 leukemia
MDA-N = system: MDA-N
OVCAR-4 ovarian = system: OVCAR-4 ovarian
SF-295 CNS = system: SF-295 CNS
SK-OV-3 ovarian = system: SK-OV-3 ovarian
SN12C renal = system: SN12C renal
UACC-62 melanoma = system: UACC-62 melanoma

## Nc1nc(Cl)c(C=O)c(NCC2(CO)CCC2)n1
786-0 renal
  TGI: > 100 µM
ACHN renal
  TGI: > 100 µM
BT-549 breast
  TGI: > 100 µM
CAKI-1 renal
  TGI: 33.9 µM
HCC-2998 colon
  TGI: 22.9 µM
K-562 leukemia
  TGI: 31.7 µM
MDA-N
  TGI: 77 µM
OVCAR-4 ovarian
  TGI: 32.9 µM
SF-295 CNS
  TGI: 67.6 µM
SK-OV-3 ovarian
  TGI: 69.5 µM
SN12C renal
  TGI: > 100 µM
UACC-62 melanoma
  TGI: 35.1 µM

## CN(/N=C/c1ccccc1C(=O)O)C1=NCCCCN1
786-0 renal
  TGI: > 100 µM
ACHN renal
  TGI: > 100 µM
BT-549 breast
  TGI: > 100 µM
CAKI-1 renal
  TGI: > 100 µM
HCC-2998 colon
  TGI: > 100 µM
K-562 leukemia
  TGI: > 100 µM
MDA-N
  TGI: > 100 µM
OVCAR-4 ovarian
  TGI: > 100 µM
SF-295 CNS
  TGI: > 100 µM
SK-OV-3 ovarian
  TGI: > 100 µM
SN12C renal
  TGI: > 100 µM
UACC-62 melanoma
  TGI: > 100 µM

## C[C@H]1[C@H](C)CC[C@]2(C(=O)OC3OC(CO)C(O)C(O)C3O)CC[C@]3(C)C(=CC[C@@H]4[C@@]5(C)C[C@@H](O)[C@@H]6OC(=O)c7cc(O)c(O)c(O)c7-c7c(cc(O)c(O)c7O)C(=O)OC[C@]6(CO)[C@@H]5CC[C@]43C)[C@H]12 (stereo partly drawn)
786-0 renal
  TGI: 32.9 µM
ACHN renal
  TGI: > 100 µM
BT-549 breast
  TGI: > 100 µM
CAKI-1 renal
  TGI: > 53.3 µM
HCC-2998 colon
  TGI: > 100 µM
K-562 leukemia
  TGI: > 100 µM
MDA-N
  TGI: 51.1 µM
OVCAR-4 ovarian
  TGI: 40.1 µM
SF-295 CNS
  TGI: > 91 µM
SK-OV-3 ovarian
  TGI: > 100 µM
SN12C renal
  TGI: > 100 µM
UACC-62 melanoma
  TGI: > 100 µM

## C[C@]12CC/C(=N\O)C=C1CC[C@@H]1[C@@H]2CC[C@]2(C)C(=N/O)/C(=C/c3ccncc3)C[C@@H]12
786-0 renal
  TGI: > 100 µM
ACHN renal
  TGI: > 100 µM
BT-549 breast
  TGI: > 100 µM
CAKI-1 renal
  TGI: > 100 µM
HCC-2998 colon
  TGI: 59.7 µM
K-562 leukemia
  TGI: > 100 µM
MDA-N
  TGI: > 100 µM
OVCAR-4 ovarian
  TGI: > 100 µM
SF-295 CNS
  TGI: > 100 µM
SK-OV-3 ovarian
  TGI: > 100 µM
SN12C renal
  TGI: > 100 µM
UACC-62 melanoma
  TGI: 35 µM
